ChEMBL document CHEMBL3259527, “Synthesis and molecular docking studies of potent α-glucosidase inhibitors based on biscoumarin skeleton” (Eur J Med Chem, 2014)
pIC50: −log10 of the molar value.

Target: not listed separately
Experiment: Inhibition of rat intestinal alpha-glucosidase using p-nitrophenyl-alpha-D-glucopyranoside assessed as release of p-nitrophenol after 5 mins by spectrophotometric analysis
C[C@H]1O[C@H](O[C@H]2[C@H](O)[C@@H](O)[C@@H](O[C@H]3[C@H](O)[C@@H](O)C(O)O[C@@H]3CO)O[C@@H]2CO)[C@H](O)[C@@H](O)[C@@H]1N[C@H]1C=C(CO)[C@@H](O)[C@H](O)[C@H]1O (stereo partly specified) [ACARBOSE] gave a pIC50 of 3.04.
Work on COc1ccc(C(c2c(O)c3cc(C)ccc3oc2=O)c2c(O)c3cc(C)ccc3oc2=O)cc1 yielded a pIC50 of 3.97.
CCOc1cc(C(c2c(O)c3cc(C)ccc3oc2=O)c2c(O)c3cc(C)ccc3oc2=O)ccc1O gave a pIC50 of 3.65.
Compound O=c1oc2ccc(Cl)cc2c(O)c1C(c1ccccc1[N+](=O)[O-])c1c(O)c2cc(Cl)ccc2oc1=O has a pIC50 of 4.09.
Compound COc1ccc(C(c2c(O)c3cc(Cl)ccc3oc2=O)c2c(O)c3cc(Cl)ccc3oc2=O)cc1OC has a pIC50 of 4.04.
O=c1oc2ccc(Cl)cc2c(O)c1C(c1ccc(Cl)cc1Cl)c1c(O)c2cc(Cl)ccc2oc1=O showed a pIC50 of 4.78.
For O=c1oc2ccc(Cl)cc2c(O)c1C(c1cccc([N+](=O)[O-])c1)c1c(O)c2cc(Cl)ccc2oc1=O, the pIC50 was 4.57.
Work on COc1cc(C(c2c(O)c3cc(C)ccc3oc2=O)c2c(O)c3cc(C)ccc3oc2=O)cc(OC)c1OC yielded a pIC50 of 3.41.
Work on O=c1oc2ccc(Cl)cc2c(O)c1C(c1cccc(O)c1)c1c(O)c2cc(Cl)ccc2oc1=O yielded a pIC50 of 4.08.
Compound Cc1ccc2oc(=O)c(C(c3ccccc3[N+](=O)[O-])c3c(O)c4cc(C)ccc4oc3=O)c(O)c2c1 has a pIC50 of 3.89.
Compound Cc1ccc2oc(=O)c(C(c3cccc([N+](=O)[O-])c3)c3c(O)c4cc(C)ccc4oc3=O)c(O)c2c1 has a pIC50 of 4.17.
In the case of CSc1ccc(C(c2c(O)c3cc(C)ccc3oc2=O)c2c(O)c3cc(C)ccc3oc2=O)cc1, the pIC50 was 4.43.
In the case of Cc1ccc2oc(=O)c(C(c3cccc(O)c3)c3c(O)c4cc(C)ccc4oc3=O)c(O)c2c1, the pIC50 was 4.28.
For COc1cc(C(c2c(O)c3cc(Cl)ccc3oc2=O)c2c(O)c3cc(Cl)ccc3oc2=O)ccc1O, the pIC50 was 3.95.
Compound CCOc1cc(C(c2c(O)c3cc(Cl)ccc3oc2=O)c2c(O)c3cc(Cl)ccc3oc2=O)ccc1O has a pIC50 of 4.24.
For COc1ccc(C(c2c(O)c3cc(Cl)ccc3oc2=O)c2c(O)c3cc(Cl)ccc3oc2=O)cc1O, the pIC50 was 4.08.
With COc1ccc(C(c2c(O)c3cc(Cl)ccc3oc2=O)c2c(O)c3cc(Cl)ccc3oc2=O)cc1 the pIC50 was 4.12.
COc1cc(C(c2c(O)c3cc(Cl)ccc3oc2=O)c2c(O)c3cc(Cl)ccc3oc2=O)cc(OC)c1OC showed a pIC50 of 3.89.
Compound Cc1ccc2oc(=O)c(C(c3ccc([N+](=O)[O-])cc3)c3c(O)c4cc(C)ccc4oc3=O)c(O)c2c1 has a pIC50 of 4.10.

Organism: Rattus norvegicus
Experiment: Ratio of acarbose IC50 to compound IC50 for rat intestinal alpha-glucosidase using p-nitrophenyl-alpha-D-glucopyranoside assessed as release of p-nitrophenol after 5 mins by spectrophotometric analysis
O=c1oc2ccc(Cl)cc2c(O)c1C(c1ccc(Cl)cc1Cl)c1c(O)c2cc(Cl)ccc2oc1=O showed a Ratio IC50 of 54.
With O=c1oc2ccc(Cl)cc2c(O)c1C(c1cccc([N+](=O)[O-])c1)c1c(O)c2cc(Cl)ccc2oc1=O the Ratio IC50 was 33.
